Source: patent US12479888B2, “Polypeptide and application thereof” (HDL SOLUTIONS OTTAWA, priority 2019, dated 2025)
“And” between values parts separate entries of the source, which are not always exact repeats. Equal entries are not always repeated. Ends that are not written are not given here. * marks the point of attachment. Stearoyl = CCCCCCCCCCCCCCCCCC(=O)*

Key:
Assay type in all cases: in vivo
[1] = Body weight of apoE knockout mice on high-fat diet
From the text: (§1) Male apoE knockout mice (C57BL/6J) at age of 10 weeks were purchased from GemPharmatech, Nanjing, Jiangsu, China. The mice were fed with low fat diet [SPF growth and reproduction feed for rats and mice: 12.95% fat (wt/wt), 24.02% protein (wt/wt)] from Beijing KeaoXieli Feed Co. Ltd., Beijing, China in a pathogen-free facility for two weeks, and then divided into the following three groups (8 mice each group): (a) the control group was fed low fat diet, referred to as Chow; (b) the high-fat group was fed high-fat diet (HFD) [21% fat (wt/wt), 0.15% (wt/wt) cholesterol, 20% protein (wt/wt), Research Diets, New Brunswick, NJ, D12079B], referred to as the HFD; (c) the treatment group was fed high-fat diet plus the injection through tail vein with polypeptide 21H21 (50 μg/200μL 1× PBS) once every four days, referred to as the HFD+21H21. The total injection was 10 times. One day after the last injection, the mice were anesthetized and euthanized in carbon dioxide, and then blood, liver and aorta were collected. During the period of the experiment, each group of mice was weighed. All animal experiments were carried out in accordance with the animal management guidelines of the People's Republic of China.

apoE knockout mice [2] = assay: Oil Red O staining of liver cryostat sections, area of neutral lipids; conditions: HFD+21H21 vs HFD, 50 μg tail vein once every four days, 10 injections, p value=0.0004
From the text: as §1
Liver tissue collected in Experimental Example 1 was embedded in OCT compound (Sakura Tissue-Tek) and then stored at −80° C. […]

apoE knockout mice [3] = assay: Oil Red O staining of aortic root cryostat sections, area of neutral lipids; conditions: HFD+21H21 vs HFD, 50 μg tail vein once every four days, 10 injections
From the text: as §1
The upper half of the heart together with the aortic root tissue collected in Experimental Example 1 was embedded in OCT compound (Sakura Tissue-Tek) and stored at −80° C. […]

apoE knockout mice [4] = assay: Oil Red O staining of full-length aorta, area of neutral lipids; conditions: HFD+21H21 vs HFD, 50 μg tail vein once every four days, 10 injections, p value=4.40108E-05
From the text: as §1
Aorta separation in Experimental Example 1 was carried out as Tangirala R K, et al. (Circulation. 1999; 100: 1816-1822). […]

[5] = Body weight of LDLR-deficient mice on high-fat diet
From the text: (§2) Male LDLR-deficient mice (C57BL/6-Ldlrem1Cd82/Nju) at age of 11 weeks were purchased fromGemPharmatech, Nanjing, Jiangsu, China. The mice were fed with low fat diet [SPF growth and reproduction feed for rats and mice: 12.95% fat (wt/wt), 24.02% protein (wt/wt)] from Beijing KeaoXieli Feed Co. Ltd., Beijing, China in a pathogen-free facility for two weeks, and then divided into the following three groups (8 mice each group): (a) the control group was fed low fat diet, referred to as Chow; (b) the high-fat group was fed high-fat diet (HFD) [21% fat (wt/wt), 0.15% (wt/wt) cholesterol, 20% protein (wt/wt), Research Diets, New Brunswick, NJ, D12079B], referred to as the HFD; (c) the treatment group was fed high-fat diet plus the injection through tail vein with polypeptide 21H21(50μg/200μL lx PBS) once every three days, referred to as the HFD+21H21. The total injection was 10 times. One day after the last injection, the mice were anesthetized and euthanized in carbon dioxide, and then blood, liver and aorta werecollected. During the period of the experiment, each group of mice was weighed. All animal experiments were carried out in accordance with the animal management guidelines of the People's Republic of China.

LDLR-deficient mice = assay: Oil Red O staining of full-length aorta, area of neutral lipids; conditions: HFD+21H21 vs HFD, 50 μg tail vein once every three days, 10 injections
From the text: as §2
Aorta separation in Experimental Example 4 was carried out as Tangirala RK, et al. (Circulation. 1999; 100: 1816-1822). […]

21H21: Stearic acid conjugated to the N-terminus of polypeptide SEQ ID NO: 3 (FAYLQDVVEQAIIRVLTGTEK) (Stearoyl-FAYLQDVVEQAIIRVLTGTEK)
Effect on weight gain by high-fat diet ([1]; 50 μg per mouse i.v. once every four days): able to offset weight gain | Percentage decrease of body weight (HFD + 21H21 vs HFD) ([1]; Day 88): 12.82% | Average body weight per mouse ([1]; Day 88, HFD + 21H21 50 μg tail vein once every four days): 24.38 g | Percentage decrease of body weight (HFD + 21H21 vs HFD) ([1]; Day 97): 14.46% | Average body weight per mouse ([1]; Day 97, HFD + 21H21 50 μg tail vein once every four days): 24.83 g | Percentage decrease of body weight (HFD + 21H21 vs HFD) ([1]; Day 105): 15.79% | Average body weight per mouse ([1]; Day 105, HFD + 21H21 50 μg tail vein once every four days): 25.21 g | Percentage decrease of body weight (HFD + 21H21 vs HFD) ([1]; Day 110): 13.82% | Average body weight per mouse ([1]; Day 110, HFD + 21H21 50 μg tail vein once every four days): 25.61 g | Percentage decrease of body weight (HFD + 21H21 vs HFD) ([1]; Day 119): 12.24% | Average body weight per mouse ([1]; Day 119, HFD + 21H21 50 μg tail vein once every four days): 26.63 g | Percentage decrease of body weight (HFD + 21H21 vs HFD) ([1]; Day 123): 15.04% | Average body weight per mouse ([1]; Day 123, HFD + 21H21 50 μg tail vein once every four days): 26.76 g | Prevention of accumulation of neutral lipids in liver tissue caused by high-fat diet (apoE knockout mice [2]): 53% | Prevention of accumulation of neutral lipids at the aortic root caused by high-fat diet (apoE knockout mice [3]): 35% | Prevention of atherosclerotic lesion of full-length aorta (apoE knockout mice [4]): 48% | Percentage of weight gain during experiment ([5]; HFD + 21H21 50 μg tail vein once every three days): 10.02% | Average body weight after experiment ([5]; HFD + 21H21 50 μg tail vein once every three days, 10 injections): 29.2 ± 0.02 g | Average body weight before experiment ([5]; HFD + 21H21 group (n = 8), baseline): 26.54 ± 0.02 g | Percentage of weight gain offset by 21H21 ([5]; HFD + 21H21 vs HFD): 29% and 29.17% | Prevention of atherosclerotic lesion of full-length aorta (LDLR-deficient mice): 94%
